Reference: US20070259784A1, “Fungicidal Mixtures” (BASF Aktiengesellschaft, priority 2004, published 2007)

System: Puccinia recondita
Assay: Protective activity against Puccinia recondita on wheat (brown rust of wheat)
Type: in vivo
Details: individual active compound, wheat leaves, visual rating
Method: The active compounds, separately or jointly, were prepared as a stock solution comprising 0.25% by weight of active compound in acetone or DMSO. 1% by weight of the emulsifier Uniperol® EL (welting agent having emulsifying and dispersant action based on ethoxylated alkylphenols) was added to this solution, and the mixture was diluted with water to the desired concentration.
Leaves of potted wheat seedlings of the cultivar “Kanzler” were sprayed to runoff point with an aqueous suspension having the concentration of active compound stated below. The next day, the treated plants were inoculated with a spore suspension of brown rust of wheat (Puccinia recondita). The plants were then placed in a chamber with high atmospheric humidity (90 to 95%) at 20 to 22° C. for 24 hours. During this time, the spores germinated and the germinal tubes penetrated into the leaf tissue. The next day, the test plants were returned to the greenhouse and cultivated at temperatures between 20 and 22° C. and at 65 to 70% relative atmospheric humidity for a further 7 days. The extent of the development of the rust fungus on the leaves was then determined visually.
The visually determined percentages of infected leaf areas were converted into efficacies in % of the untreated control:
The efficacy (E) is calculated as follows using Abbot's formula: E=(1−α/β)·100 α corresponds to the fungicidal infection of the treated plants in % and β corresponds to the fungicidal infection of the untreated (control) plants in %
An efficacy of 0 means that the infection level of the treated plants corresponds to that of the untreated control plants; an efficacy of 100 means that the treated plants were not infected.
The expected efficacies of mixtures of active compounds were determined using Colby's formula (Colby, S. R. “Calculating synergistic and antagonistic responses of herbicide combinations”, Weeds, 15, 20-22, 1967) and compared with the observed efficacies.
Colby's Formula: E=x+y−x·y/100 • E expected efficacy, expressed in % of the untreated control, when using the mixture of the active compounds A and B at the concentrations a and b • x efficacy, expressed in % of the untreated control, when using the active compound A at the concentration a
y efficacy, expressed in % of the untreated control, when using the active compound B at the concentration b

CC1CCN(c2c(-c3c(F)cc(F)cc3F)c(Cl)nc3ncnn23)CC1 [compound I, 5-chloro-7-(4-methylpiperidin-1-yl)-6-(2,4,6-trifluorophenyl)-[1,2,4]triazolo[1,5-a]pyrimidine]
Efficacy in % of the untreated control (2.5 ppm in the spray liquor): 42% | Efficacy in % of the untreated control (5 ppm in the spray liquor): 53%

CCN(CC)C1COC2(CCC(C(C)(C)C)CC2)O1 (centres unmarked) [compound II, (8-tert-butyl-1,4-dioxaspiro[4.5]dec-2-yl)diethylamine]
Efficacy in % of the untreated control (1 ppm in the spray liquor): 0% | Efficacy in % of the untreated control (2.5 ppm in the spray liquor): 0% | Efficacy in % of the untreated control (12.5 ppm in the spray liquor): 0%
